Reference: ChEMBL document CHEMBL1770113, “Improved synthesis of 15-deoxyspergualin analogs using the Ugi multi-component reaction” (Bioorg Med Chem Lett, 2011)
Converted amounts (≈) assume the structure as drawn.

Experiments:
[1] = Chemical stability of the compound in aqueous buffer assessed as half life at pH 7 by thin layer chromatography; type: physicochemical
[2] = Chemical stability of the compound in aqueous buffer assessed as half life at pH 8 by thin layer chromatography; type: physicochemical; settings: for half-life: aqueous buffer
Bacillus subtilis = experiment: Antibacterial activity against Bacillus subtilis; type: functional
Staphylococcus aureus = experiment: Antibacterial activity against Staphylococcus aureus; type: functional
[3] = Chemical stability of the compound in aqueous buffer assessed as half life at pH 5 by thin layer chromatography; type: physicochemical; settings: for Stability: buffer; for half-life: aqueous buffer
[4] = Chemical stability of the compound in aqueous buffer assessed as half life at pH 10 by thin layer chromatography; type: physicochemical; settings: for half-life: aqueous buffer
Escherichia coli = experiment: Antibacterial activity against Escherichia coli; type: functional

| half-life [1] [h] | half-life [2] [h] | MIC (Bacillus subtilis) [µg/mL] | MIC (Staphylococcus aureus) [µg/mL] | Stability [3] | Stability ([4]; buffer) | MIC (Escherichia coli) [µg/mL] | half-life [3] [h] | half-life [4] [h] | Stability ([2]; buffer) | SMILES |
| --- | --- | --- | --- | --- | --- | --- | --- | --- | --- | --- |
| 203 | 563 | 50 (≈ 105 µM) | 50 (≈ 105 µM) | Unstable | Unstable | > 250 |  |  |  | N=C(N)NCCCCCCC(=O)NC(CCc1ccccc1)C(=O)NCCCCNCCCN (racemic) |
| 190 | 720 | 50 (≈ 125 µM) | 50 (≈ 125 µM) |  |  | > 250 | 140 | 48 |  | COC(NC(=O)CCCCCCNC(=N)N)C(=O)NCCCCNCCCN (racemic) |
| 100 | 260 | 10 (≈ 26.9 µM) | 10 (≈ 26.9 µM) |  |  | > 250 | 90 | 3 |  | N=C(N)NCCCCCCC(=O)NCC(=O)NCCCCNCCCN |
| 440 |  | 50 (≈ 95 µM) | 50 (≈ 95 µM) | Unstable |  | > 250 |  | 420 | Unstable | N=C(N)NCCCCCCC(=O)NC(C(=O)NCCCCNCCCN)c1ccc(Br)cc1 (racemic) |
